Results from patent US20160047819A1, “METHOD FOR DIAGNOSING VAGINAL INFECTIONS” (priority 2013, published 2016).

Tested on: bacterial vaginosis
Experiment: Remission of bacterial vaginosis at V3 by Amsel's criteria and Gram stain Nugent score
Assay type: in vivo, human
Protocol: Also provided is a diagnostic kit for use characterizing at least one protein useful for identifying the status of a vaginal infection. The kit includes instructions for carrying out a method of diagnosing vaginal infection using mass spectrometry. The diagnostic method of the invention has been tested on vaginal fluids collected from women enrolled in a clinical study of 80 Belgian pre-menopausal, non-pregnant women, aged between 18 and 50 years were analyzed. At the screening visit (V1) diagnosis of health or BV was made using both Amsel's criteria and Gram stain Nugent scoring. Patients with Nugent score >3 and positive for at least 3 of 4 Amsel's criteria were considered positive for BV. According to this clinical evaluation, women were divided into 2 groups: healthy subjects (H), (n=41) and patients diagnosed for BV (n=39). Patients who were diagnosed for BV at the study visit V1 were included in a multicenter, double-blind, randomised, placebo-controlled study reported in U.S. Ser. No. 13/559,013 (EudraCT: 2009-011826-32), that was performed to compare the efficacy of different doses of rifaximin vaginal tablets versus placebo for the treatment of BV. These patients underwent a randomisation visit and were distributed into four treatment groups: • group A received 100 mg rifaximin vaginal tablet once daily for 5 days (n=10), • group B received 25 mg rifaximin vaginal tablet once daily for 5 days (n=10), • group C received 100 mg rifaximin vaginal tablet once daily for the first 2 days and placebo vaginal tablet for the remaining 3 days (n=9), and • group D received placebo vaginal tablet once daily for 5 days (n=10).
After 7 to 10 days from the end of the therapy a follow-up visit (V3) was performed. Remission was evaluated at V3 according to Amsel's criteria (<3) and Gram stain Nugent score ([…]).
(§1) Patients who were diagnosed for BV at the study visit V1 were included in a multicentre, double-blind, randomised, placebo-controlled study (EudraCT: 2009-011826-32), that was performed to compare the efficacy of different doses of rifaximin vaginal tablets versus placebo for the treatment of BV. The patients underwent a randomization visit and were distributed into 4 treatment groups: group A received 100 mg rifaximin vaginal tablet once daily for 5 days (n=10), group B received 25 mg rifaximin vaginal tablet once daily for 5 days (n=10), group C received 100 mg rifaximin vaginal tablet once daily for the first 2 days and placebo vaginal tablet for the remaining 3 days (n=9), group D received placebo vaginal tablet once daily for 5 days (n=10). Study medication was administered intra-vaginally at bedtime. After 7 to 10 days from the end of the therapy a follow-up visit (V3) was performed. Remission was evaluated at V3 according to Amsel's criteria (<3) and Gram stain Nugent score (≦3) (Table 1).
as §1, with “randomisation” for “randomization”

[1] = group A: 100 mg vaginal tablet once daily for 5 days (n=10)
[2] = group B: 25 mg vaginal tablet once daily for 5 days (n=10)
[3] = group C: 100 mg vaginal tablet once daily for 2 days, then placebo 3 days (n=9)

CO[C@H]1/C=C/O[C@@]2(C)Oc3c(C)c(O)c4c(O)c(c5c(nc6cc(C)ccn65)c4c3C2=O)NC(=O)/C(C)=C\C=C\[C@H](C)[C@H](O)[C@@H](C)[C@@H](O)[C@@H](C)[C@H](OC(C)=O)[C@@H]1C [rifaximin]
women in remission after treatment [1]: 2 women | women not in remission after treatment [1]: 8 women | women in remission after treatment [2]: 5 women | women not in remission after treatment [2]: 5 women | women in remission after treatment [3]: 4 women | women not in remission after treatment [3]: 5 women | women in remission (R), all treatment groups (of 39 BV-affected women after rifaximin/placebo treatment): 11 women
